What was measured:
Rac = experiment: Rac-dependant signaling pathway analysis (reporter system); format: cell-based; set-up: key: −: no effect of the compound was observed; +: an effect of the compound was observed
Method: The impact of the compounds on Ras and Rac signaling pathways was analysed with two reporter systems described by Imler (Nature 1988) and Lin (Science, 1995) respectively on one hand, and by a colony formation assay in the presence of constitutively activated Ras (RasV12) and Rac (RacV12) on the other hand. For this latter experiment, fifty percent confluent NIH3T3 cells in a 10 cm diameter petri dish were transfected with 0.5 μg pSV2-RasV12 or 0.5 μg pEXV RacV12 plasmids plus 100 ng of pSV2-neomycin plasmid using Lipofectamine-Plus reagent (Invitrogen) according to the manufacturer's instructions. Forty-eight hours later, cells were trypsinised, splitted to ⅓, and incubated in the presence of complete medium supplemented with 400 μg/ml geneticin (Invitrogen) and different doses of compound (1, 10, 17.5, 25 and 50 μM) until emerging resistant clones appear (2-3 weeks). The medium was renewed every 3 days. Colonies with a minimum of 50 cells were counted after staining with Fuschin 2%.

HCT116 cells = experiment: Anchorage-independent growth assay (soft agar / Matrigel); format: cell-based, human; settings: for effect on anchorage-independent growth: HCT116; for IC50: Homo sapiens, HCT-116, 168 h, HCT116, 3-dimensional growth, 1 week
Method: In order to evaluate the effect of the compounds on the capacity of tumor cells to grow without anchorage, HCT116 cells were seeded either in agar or in Matrigel (BD, France). For 3D growth experiment in soft agar in 24-well plates, 5.10^3 HCT116 cells were resuspended in 250 μl of complete medium containing 0.3% soft-agar (Difco) and different concentrations of compound (0.1, 1, 10, 17.5, 25 and 50 μM). Cells were then poured on a solidified layer of medium containing 0.5% of soft-agar plus the compound at the same concentration than in the upper layer. Cells were incubated at 37° C. for 1 week before they were analysed using a phase contrast microscope (Nikon). For 3D growth experiment in Matrigel, 10^4 HCT116 cells were resuspended in 300 μl of complete medium containing 5 mg/ml Matrigel (BD, France) and different concentrations of compound (0.1, 1, 10, 17.5, 25 and 50 μM), and poured in 24-well plates. After solidification at 37° C. for 15 min., complete medium containing the compound was added to each well. Cells were incubated for 1 week before they were collected using Matrisperse (BD, France) according to the manufacturer's instructions. After recovery, alive cells were counted with trypan blue exclusion.

NIH3T3 = experiment: Cytoskeleton analysis, actin staining (FITC-phalloidin); format: cell-based, mouse; settings: for Cell architecture modification actin staining (R: ruffles; FC: focal complexes) NIH3T3: 24 h treatment; for concentration at which specific inhibition of membrane ruffles and increase in the number of stress fibers was observed: NIH3T3, actin staining
In short: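 Subconfluent cells on coverslips were exposed to compound at 1, 10, 17.5, 25 or 50 μM, or to vehicle, for 24 h. They were then formaldehyde-fixed, Triton-permeabilized and blocked. Actin was stained with 0.5 μg/ml FITC-phalloidin for 1 h and imaged by inverted fluorescence microscopy.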

MRC-5 = experiment: Cytotoxicity assay (MTT), 6 days; format: cell-based; settings: Homo sapiens, MRC5, 144 h, 6 days of treatment, read-out: Toxicity 6d (IC 50, μM) MRC-5
In short: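 MTT read-out at 550 nm after 6-day exposure to compound (0–50 μM, 1% DMSO). MTT 0.5 mg/ml in PBS, 3 h, 37° C; crystals solubilized in 100% DMSO. IC50 from surviving fraction; triplicates.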

MDA231 = experiment: Cytoskeleton analysis, actin staining (FITC-phalloidin); format: cell-based, human
Method: (§1) Since major rearrangements of cytoskeleton are observed in tumor cells and since the small GTPases are known to regulate these events, analysis of actin cytoskeleton was performed. Subconfluent cells seeded onto coverslips were treated with different concentration of compound (1, 10, 17.5, 25 and 50 μM) or vehicle for 24 h, before being fixed in 4% formaldehyde for 15 min., permeabilized in 0.2% Triton X100 for 5 minutes and incubated in PowerBlock (Biogenex) for 10 min. Actin filaments were stained with 0.5 μg/ml fluorescein isothiocyanate (FITC)-labelled phalloidin for 1 hour. Analysis was performed using an inverted fluorescent microscope.

HCT116 = experiment: as above; format: cell-based, human; settings: HCT116 tumor cells
Method: as §1

H460 = experiment: as above; format: cell-based, human; settings: H460 tumor cells
Method: as §1

Structure (SMILES)	Small GTPases activities Rac (Rac)	effect on anchorage-independent growth (HCT116 cells)	IC50 (HCT116 cells) [µM]	Cell architecture modification actin staining (R: ruffles; FC: focal complexes) NIH3T3 (NIH3T3)	concentration at which specific inhibition of membrane ruffles and increase in the number of stress fibers was observed (NIH3T3) [µM]	IC50 (MRC-5) [µM]	MDA-MB-231 spreading (MDA231)	Cell architecture modification actin staining MDA231 (MDA231; 24 h treatment)	concentration at which dose-dependant increase in spreading and disruption of cell-to-cell junctions was observed (HCT116) [µM]	concentration at which dose-dependant increase in spreading and disruption of cell-to-cell junctions was observed (H460) [µM]
CCCc1c(OCCCCCOc2coc(CO)cc2=O)ccc(Cl)c1Cl [EH22900, 5-[5-(3,4-Dichloro-2-propylphenyloxy)pentyloxy]-2-(hydroxymethyl)-4H-pyran-4-one]	−	strongest effect	< 1	R-, FC+	10	25	increased	cell spreading		
C/C=C/c1oc(CO)cc(=O)c1OCCCCCOc1ccc(Cl)c(Cl)c1CCC [EH31101, (E)-3-[5-(3,4-Dichloro-2-propylphenyloxy)pentyloxy]-6-(hydroxymethyl)-2-(propen-1-yl)-4H-pyran-4-one]	−	significant, although less severe, effect	< 1	R-, FC+	50				10	25

From patent US20050054629A1, “Compounds and methods of treating cell proliferative diseases” (priority 2002, published 2005)
